Data: patent publication US11710542B2, “Methods of protein docking and rational drug design” (priority 2016, dated 2023)
Values after ≈ are worked out from the molar mass of the structure shown.

How the values were obtained:
[1] = test system: E. coli K-12 strain; assay: MIC (MIC90) by broth microdilution, E. coli K-12 strain expressing TEM β-lactamase variants; type: cell-based; settings: for MIC: E. coli K-12 strain, no plasmid (no TEM β-lactamase), MIC90
Method: (§1) Plasmids were then transformed into BL21(DE3) cells (Intact Genomics) and DH5a cells (Life Technologies) to create strains in which β-lactamases are expressed using a native promoter.
(§2) Antibiotic resistance of the strains was determined by measuring their minimum inhibitory concentrations (MIC90's) using the broth microdilution method according to the Clinical and Laboratory Standards Institute (CLSI, formerly the NCCLS) guidelines (CLSI document M07-A9, 2012). Each well of a 96-well microtiter plate was filled with 75 μL of sterile Mueller Hinton II (MHII) media broth (Sigma). Each antibiotic was dissolved in water making a 20 mM solution, then diluted with sterile MHII media broth to […] (BP) or 288 μM (CFX). Exactly 75 μL of the compound solution was added to the first well of the microtiter plate and 2-fold serial dilutions were made down each row of the plate. Exactly 75 μL of bacterial inoculum (5×10^5 CFU/mL) was then added to each well giving a total volume of 150 μL/well and compound concentration gradients of […] (BP) and 72 μM-0.04 μM (CXF). The plate was incubated at 37° C. for 17 h, and then each well was examined for bacterial growth. The MIC90 was recorded as the lowest compound concentration required to inhibit 90% of bacterial growth as judged by turbidity of the culture media relative to a row of wells filled with a water standard. Gentamicin was included in a control row at a concentration gradient of 174 μM-0.09 μM.

[2] = test system: E. coli B strain; assay: MIC (MIC90) by broth microdilution, E. coli B strain expressing TEM β-lactamase variants; type: cell-based; settings: for MIC: E. coli B strain, no plasmid (no TEM β-lactamase), MIC90
Method: as §1, §2

## CC1(C)S[C@@H]2[C@H](NC(=O)Cc3ccccc3)C(=O)N2[C@H]1C(=O)O [BP, benzylpenicillin]
[1]; Escherichia coli, K12STRAIN
  MIC: 50 µM (≈ 16.7 µg/mL)
[2]; Escherichia coli
  MIC: < 23 µM

## CO/N=C(\C(=O)N[C@@H]1C(=O)N2C(C(=O)O)=C(COC(C)=O)CS[C@H]12)c1csc(N)n1 [CFX, cefotaxime]
[1]
  MIC: <0.035 µM
[2]
  MIC: <0.035 µM

## Gentamicin
[1]
  MIC: 0.34 µM
[2]
  MIC: 0.68 µM

B1: TEM-1: wild-type TEM β-lactamase reference (protein, UniProt P62593 24-286, looked up)
Beta-lactamase TEM: HPETLVKVKDAEDQLGARVGYIELDLNSGKILESFRPEERFPMMSTFKVLLCGAVLSRVDAGQEQLGRRIHYSQNDLVEYSPVTEKHLTDGMTVRELCSAAITMSDNTAANLLLTTIGGPKELTAFLHNMGDHVTRLDRWEPELNEAIPNDERDTTMPAAMATTLRKLLTGELLTLASRQQLIDWMEADKVAGPLLRSALPAGWFIADKSGAGERGSRGIIAALGPDGKPSRIVVIYTTGSQATMDERNRQIAEIGASLIKHW
[1]; benzylpenicillin (BP), E. coli K-12 strain expressing the TEM variant, MIC90, 37° C., 17 h
  BP MIC: 24000 µM
[1]; cefotaxime (CFX), E. coli K-12 strain expressing the TEM variant, MIC90, 37° C., 17 h
  CFX MIC: <0.035 µM
[1]; gentamicin (control antibiotic), E. coli K-12 strain expressing the TEM variant, MIC90, 37° C., 17 h
  Gentamicin MIC: 0.17 µM
[2]; benzylpenicillin (BP), E. coli B strain expressing the TEM variant, MIC90, 37° C., 17 h, most commonly observed value, error +/− one well
  BP MIC: 24000 µM
[2]; cefotaxime (CFX), E. coli B strain expressing the TEM variant, MIC90, 37° C., 17 h
  CFX MIC: <0.035 µM
[2]; gentamicin (control antibiotic), E. coli B strain expressing the TEM variant, MIC90, 37° C., 17 h
  Gentamicin MIC: 0.68 µM
